From article PMC5133935, “Hydrostatin-TL1, an Anti-Inflammatory Active Peptide from the Venom Gland of Hydrophis cyanocinctus in the South China Sea” (International Journal of Molecular Sciences, 2016)
Entries after “also recorded” stand apart in the source; their conditions may differ. No end group written: not given here.

Legend:
[1] = system: TNF-α/TNFR1; experiment: Competitive ELISA, inhibition of TNF-α binding to TNFR1; set-up: species or system human; conditions: hrTNF-α 20 ng/mL, 1 h, 37 °C, n = 3
Excerpt: We investigated whether H-TL1 has an inhibitory effect on the binding of TNF-α to TNFRs by using ELISA. In this assay, a fixed amount of TNF-α was mixed with different concentrations of H-TL1 and applied to the TNFR-coated ELISA plates. […] SPR analysis was used to further confirm the inhibitory effects of H-TL1 on the binding of TNF-α to TNFR1. As expected, TNF-α was strongly bound with the chip-immobilized TNFR1.
The T7Select1-2b display vector, T7 select primers, blocking reagent, and elution buffer were purchased from Novagen (Merck, Kenilworth, NJ, USA). […] DSS (36–50 kDa) was bought from MP Biomedicals (Solon, OH, USA). MTT, actinomycin D, and LPS were purchased from Sigma-Aldrich (St. Louis, MO, USA).
ELISA plates were coated with sTNFR1 (100 ng/well in 100 μL of 100 mM sodium carbonate, pH 9.6) for 20 h at 4 °C, followed by blocking with phosphate buffered saline (PBS) containing 0.2% Tween-20 (PBST) and 1% BSA for 1 h at 37 °C. Different concentrations of H-TL1 (0–1 μM) were mixed with hrTNF-α (20 ng/mL) in PBS containing 1% BSA, and 100 μL/well was placed in the ELISA plates and incubated for 1 h at 37 °C. After washing with PBST, an HRP-labeled monoclonal antibody against TNF-α was added, followed by incubation at 37 °C for 1 h. The plates were then washed, incubated with o-phenylenediamine, and the absorbance was subsequently measured at 450 nm.

[2] = system: L929 cells; experiment: MTT assay, protection from TNF-α-mediated cytotoxicity; type: cell-based, mouse; conditions: H-TL1 1 to 1000 nM; hrTNF-α 20 ng/mL + 0.2 μg/mL actinomycin D; 18–20 h, 37 °C; MTT 490 nm; n = 5
Procedure: We used the L929 cell line, which is commonly chosen by researchers, to evaluate the effects of H-TL1 on TNF-α-mediated cytotoxicity. The cells were treated with TNF-α and 0.2 μg/mL actinomycin D in the presence of graded concentrations of H-TL1. Cell viability was evaluated using MTT assay. […] Furthermore, H-TL1 was not cytotoxic against L929 cells at 100 μM (data not shown), which far exceeds the concentration of H-TL1 used in the in vitro assays.
The H. cyanocinctus specimens were captured during September 2005 in the South China Sea near Guangdong Province, People’s Republic of China. After collection, the snakes were killed, and the venom glands were isolated and immediately frozen in liquid nitrogen until use. HEK-293 human embryonic kidney and L929 mouse fibroblast cell lines were obtained from ATCC and cultured in Dulbecco’s modified Eagle’s medium (DMEM, Sigma-Aldrich, St. Louis, MO, USA) containing 10% (v/v) heat-inactivated fetal bovine serum (FBS, Gibco, BRL, Grand Island, NY, USA) at 37 °C in an atmosphere of 5% CO2. […]
For MTT cell viability assay, L929 cells were seeded onto a 96-well plate and cultured for 12 h. […] Following incubation at 37 °C for 18–20 h, MTT solution was added, followed by incubation at 37 °C for 4 h, and then the absorbance was determined at 490 nm. […]

[3] = system: LPS-induced acute shock in C57BL/6 mice; experiment: LPS-induced acute shock, survival; type: in vivo, mouse; conditions: for survival rate: within 96 h, LPS + vehicle all died within 30 h, n = 8
Excerpt: The H. cyanocinctus specimens were captured during September 2005 in the South China Sea near Guangdong Province, People’s Republic of China. After collection, the snakes were killed, and the venom glands were isolated and immediately frozen in liquid nitrogen until use. HEK-293 human embryonic kidney and L929 mouse fibroblast cell lines were obtained from ATCC and cultured in Dulbecco’s modified Eagle’s medium (DMEM, Sigma-Aldrich, St. Louis, MO, USA) containing 10% (v/v) heat-inactivated fetal bovine serum (FBS, Gibco, BRL, Grand Island, NY, USA) at 37 °C in an atmosphere of 5% CO2. The BLT5403 E. coli strain (used as the phage host strain) was from Novagen (Merck) and was cultured at 37 °C for propagation. The specific pathogen-free (SPF) male BALB/c and C57BL/6 mice (both 6–8 weeks old), weighing 20 ± 2 g were purchased from Shanghai SLAC Laboratory Animal Co., Ltd. (Shanghai, China). The mice were housed in animal facilities with 50% humidity under a 12-h light-dark cycle, fed a standard pellet diet, and provided with tap water ad libitum. The animal experimental protocols in this research, including venom gland isolation and the mouse study, were approved by the Animal Care and Use Committee of the Second Military Medical University.
(§1) The LPS-induced acute shock model was established in male C57BL/6 mice (6–8 weeks old) that were randomly allocated to five groups. LPS was administered (15 mg/kg body weight) to induce acute shock. The LPS- or normal saline-treated mice were injected with 100 μL of normal saline with or without LPS intraperitoneally, while the H-TL1 and LPS-treated mice were each administered H-TL1 at three doses of 20, 40, and 80 μg/kg 1, 3, and 5 h after the LPS injection (Figure 5A). The mice were observed every 4 h to evaluate mortality.

[4] = system: TNF-α expression in lung tissue of LPS-treated mice; experiment: Immunohistochemistry, TNF-α in lung tissue; type: in vivo, mouse; conditions: IHC 400×, n = 8, *** p < 0.001 vs. LPS group
Procedure: as §1
An additional set of paraffin sections was used for immunohistochemical analysis of TNF-α expression. Sections (5-μm thick) were mounted on slides, cleaned, hydrated, blocked with endogenous peroxidase (Dako, S2001), washed with PBS, and then treated with citrate buffer ([…], pH 6.0) for target antigen retrieval. The sections were treated with a buffered blocking solution (3% BSA in PBS for 15 min), incubated for 1 h at room temperature with a primary polyclonal antibody specific to mouse TNF-α, washed with PBS, and incubated with a secondary HRP-labeled antibody (Abcam) (1:500 in PBS, v/v) at room temperature for 1 h. Then, the sections were washed again with Tris-HCl 0.05 M, pH 7.6, and subsequently incubated with 3,3′-diaminobenzidine (DAB) solution in the dark at room temperature for 10 min. […]

Substance: ATSKPSLKC-OH [H-TL1]
- inhibition of the binding of TNF-α with TNFR1 ([1]; H-TL1 1 μM, plate coated with sTNFR1 100 ng/well, PBS + 1% BSA, absorbance 450 nm): ~60%
- inhibition of TNF-α/TNFR1 binding, concentration dependence ([1]; H-TL1 0.1–1000 nM): obviously inhibits the binding of TNF-α with TNFR1; also recorded: inhibited the binding of TNF-α with TNFR1 in a concentration-dependent manner
- inhibition of TNF-α-induced L929 cell death [2]: inhibited TNF-α-induced L929 cell death in a concentration-dependent manner; also recorded: improved survival in TNF-α-treated L929 cells
- survival rate ([3]; H-TL1 40 μg/kg at 1, 3, and 5 h after LPS 15 mg/kg i.p., * p < 0.05): 37.5%
- survival rate ([3]; H-TL1 80 μg/kg at 1, 3, and 5 h after LPS 15 mg/kg i.p., *** p < 0.001): 62.5%
- protection from LPS-induced acute shock, dose dependence ([3]; H-TL1 20, 40, and 80 μg/kg, LPS 15 mg/kg i.p.): protected the mice from LPS-induced acute shock in a dose-dependent manner
- TNF-α expression in lung tissue [4]: attenuated this effect
